Experimental data reported in US20130217678A1, “PHARMACEUTICAL AGENT COMPRISING QUINOLONE COMPOUND” (OTSUKA PHARMACEUTICAL CO., LTD., priority 2008, published 2013).

Tests used:
[1] = tested on: human neuroblastoma cell lines SH-SY5Y treated with 1-methyl-4-phenylpyridinium (MPP+); assay: Improvement of mitochondrial function (Alamar Blue mitochondrial oxidation reduction activity) in MPP+-treated SH-SY5Y cells; format: cell-based; conditions: 1.5 mM MPP+, relative to cells in DMSO alone = 100%, read-out: Fluorescence Intensity (%); for activity at 0.01 µg/mL: compound 0.01 μg/ml; for activity at 0.03 µg/mL: compound 0.03 μg/ml; for activity at 0.1 µg/mL: compound 0.1 μg/ml; for activity at 0.3 µg/mL: compound 0.3 μg/ml; for activity at 1 µg/mL: compound 1 μg/ml
Description: In human neuroblastoma cell lines SH-SY5Y in which mitochondrial function was damaged by MPP^+ treatment (Bollimuntha S. et al., J Biol Chem, 280, 2132-2140 (2005) and Shang T. et al., J Biol Chem, 280, 34644-34653 (2005)), the improvement of mitochondrial function was evaluated on the basis of the measurement value for mitochondrial oxidation reduction activity using Alamar Blue fluorescent dye after the compound addition (Nakai M. et al, Exp Neurol, 179, 103-110 (2003)).
The human neuroblastoma cell lines SH-SY5Y were cultured in Dulbecco's Modified Eagle's Medium containing 10% fetal bovine serum (DMEM containing 50 units/ml penicillin and 50 μg/ml streptomycin as antibiotics) at 37° C. in the presence of 5% carbon dioxide. Cells were scattered on a poly-D-lysine-coated 96-well black plate at a concentration of 3−6×10^4 cells/cm^2 (medium amount: 100 μl/well) and cultured in the medium for two days. Further, the medium was changed to DMEM containing a 1% N2 supplement (N2-DMEM) or to a medium (100 μl/well) in which 1.5 mM MPP^+ was dissolved. The cells were cultured therein for 39 to 48 hours, and then subjected to a mitochondrial oxidation reduction activity measurement system. A sample compound that had been previously dissolved in dimethyl sulfoxide (DMSO) was diluted with N2-DMEM and added in a volume of 10 μl/well 24 hours before the activity measurement (final compound concentration: 0.01 to 1 μg/ml).
After removal of the medium by suction, a balanced salt solution containing 10% Alamar Blue (154 mM sodium chloride, 5.6 mM potassium chloride, 2.3 mM calcium chloride, 1.0 mM magnesium chloride, 3.6 mM sodium hydrogen carbonate, 5 mM glucose, 5 mM HEPES, pH 7.2) was added in a volume of 100 μl/well, and reacted in an incubator at 37° C. for 1 hour. The fluorescent intensity was detected using a fluorescence detector (a product of Hamamatsu Photonics K.K., excitation wavelength: 530 nm, measurement wavelength: 580 nm) to thereby measure the mitochondrial oxidation reduction activity.
The fluorescent intensity of the well of the cells cultured in a medium containing MPP^+ and each of the sample compounds was relatively evaluated based on the 100% fluorescent intensity of the well of the cells cultured in a medium containing DMSO alone (final concentration: 0.1%).

| SMILES | activity at 0.01 µg/mL [1] [%] | activity at 0.03 µg/mL [1] [%] | activity at 0.1 µg/mL [1] [%] | activity at 0.3 µg/mL [1] [%] | activity at 1 µg/mL [1] [%] | melting point [°C] |
| --- | --- | --- | --- | --- | --- | --- |
| CCCOc1ccc(C(=O)N(C)C)c2c(=O)c(-c3ccc(OC)cc3)c[nH]c12 [Example 87, 3-(4-Methoxyphenyl)-4-oxo-8-propoxy-1,4-dihydroquinolin-5-carboxylic acid dimethylamide] | 57 | 57 | 60 | 65 | 66 | 218 to 220 |
| CCCOc1ccc(C)c2c(=O)c(-c3ccncc3)c[nH]c12 [Example 95, 5-Methyl-8-propoxy-3-pyridin-4-yl-1H-quinolin-4-one] | 51 | 56 | 57 | 61 | 47 | 112 to 113 |
| CCCOc1ccc(C(F)(F)F)c2c(=O)c(-c3ccc(OC)cc3)c[nH]c12 [Example 24, 3-(4-Methoxyphenyl)-8-propoxy-5-trifluoromethyl-1H-quinolin-4-one] | 50 | 57 | 64 | 63 | 36 | 220 to 221 |
| CCCOc1ccc(OC)c2c(=O)c(-c3ccc(OC)cc3OC)c[nH]c12 [Example 21, 3-(2,4-Dimethoxyphenyl)-5-methoxy-8-propoxy-1H-quinolin-4-one] | 65 | 68 | 77 | 82 | 84 | 113 to 114 |
| CCCOc1ccc(OC)c2c(=O)c(-c3cccc4ccccc34)c[nH]c12 [Example 51, 5-Methoxy-3-naphthalen-1-yl-8-propoxy-1H-quinolin-4-one] | 37 | 45 | 54 | 65 | 49 | 130 to 133 |
| CCCOc1ccc(C)c2c(=O)c(-c3ccsc3)c[nH]c12 [Example 58, 5-Methyl-8-propoxy-3-thiophen-3-yl-1H-quinolin-4-one] | 42 | 53 | 60 | 61 | 55 | 104 to 107 |
| CCCOc1ccc(OC)c2c(=O)c(-c3ccc(Cl)cc3Cl)c[nH]c12 [Example 38, 3-(2,4-Dichlorophenyl)-5-methoxy-8-propoxy-1H-quinolin-4-one] | 47 | 54 | 67 | 75 | 65 | 125 |
| COc1ccc(-c2c[nH]c3c(N4CCCC4)ccc(C)c3c2=O)cc1 [Example 68, 3-(4-Methoxyphenyl)-5-methyl-8-pyrrolidin-1-yl-1H-quinolin-4-one] | 49 | 56 | 62 | 57 | 33 | 177 to 178 |
| CCCOc1ccc(COC)c2c(=O)c(-c3ccc(OC)cc3)c[nH]c12 [Example 64, 5-Methoxymethyl-3-(4-methoxyphenyl)-8-propoxy-1H-quinolin-4-one] | 51 | 56 | 63 | 53 | 38 | 81 to 83 |
| CCCOc1ccc(C)c2c(=O)c(-c3csc4ccccc34)c[nH]c12 [Example 63, 3-Benzo[b]thiophen-3-yl-5-methyl-8-propoxy-1H-quinolin-4-one] | 40 | 48 | 57 | 43 | 21 | 80 to 82 |
| CCCOc1c(OC)cc(C)c2c(=O)c(-c3ccc(OC)cc3)c[nH]c12 [Example 37, 7-Methoxy-3-(4-methoxyphenyl)-5-methyl-8-propoxy-1H-quinolin-4-one] | 47 | 54 | 55 | 60 | 59 | 195 to 196 |
| COc1ccc(-c2c[nH]c3c(-c4ccco4)ccc(C)c3c2=O)cc1 [Example 96, 8-Furan-2-yl-3-(4-methoxyphenyl)-5-methyl-1H-quinolin-4-one] | 54 | 64 | 68 | 60 | 23 | 129 to 131 |
| CCCOc1cccc2c(=O)c(-c3ccc(OC)cc3)c[nH]c12 [Example 3, 3-(4-Methoxyphenyl)-8-propoxy-1H-quinolin-4-one] | 68 | 77 | 77 | 83 | 67 | 231 to 233 |
| CCCOc1ccc(OC)c2c(=O)c(-c3ccc(OC)cc3)c[nH]c12 [Example 13, 5-Methoxy-3-(4-methoxyphenyl)-8-propoxy-1H-quinolin-4-one] | 56 | 65 | 74 | 69 | 62 | 223 to 224 |
| CCn1cc(-c2ccc(OC)cc2)c(=O)c2ccc(OC)cc21 [Example 2, 1-Ethyl-7-methoxy-3-(4-methoxyphenyl)-1H-quinolin-4-one] | 71 | 73 | 74 | 77 | 81 | 129 to 131 |
| CCCOc1cccc2c(=O)c(-c3ccccc3C(F)(F)F)c[nH]c12 [Example 32, 8-Propoxy-3-(2-trofluoromethylphenyl)-1H-quinolin-4-one] | 49 | 53 | 54 | 57 | 61 | 224 |
